Assay results taken from PubChem BioAssay (NCI).
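GI50 is the concentration that inhibits growth by half. TGI is the concentration that stops growth completely.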

Key:
Test in all cases: NCI anticancer screen, dose series, 384-well format
HOP-62 NSCLC = test system: HOP-62 NSCLC
LOX IMVI melanoma = test system: LOX IMVI melanoma
MDA-MB-231 breast = test system: MDA-MB-231 breast
CCRF-CEM leukemia = test system: CCRF-CEM leukemia
SF-295 CNS = test system: SF-295 CNS
A549 NSCLC = test system: A549 NSCLC
HCT-15 colon = test system: HCT-15 colon
MCF7 breast = test system: MCF7 breast
DU-145 prostate = test system: DU-145 prostate
CAKI-1 renal = test system: CAKI-1 renal
SF-539 CNS = test system: SF-539 CNS
SK-MEL-28 melanoma = test system: SK-MEL-28 melanoma
OVCAR-5 ovarian = test system: OVCAR-5 ovarian
RPMI-8226 leukemia = test system: RPMI-8226 leukemia
SK-OV-3 ovarian = test system: SK-OV-3 ovarian
PC-3 prostate = test system: PC-3 prostate
HL-60(TB) leukemia = test system: HL-60(TB) leukemia
NCI-H226 lung = test system: NCI-H226 lung
SNB-75 CNS = test system: SNB-75 CNS
NCI-H23 lung = test system: NCI-H23 lung
U251 glioblastoma = test system: U251 glioblastoma
IGROV1 ovarian = test system: IGROV1 ovarian
UACC-257 melanoma = test system: UACC-257 melanoma
MOLT-4 leukemia = test system: MOLT-4 leukemia
UO-31 renal = test system: UO-31 renal
MALME-3M melanoma = test system: MALME-3M melanoma
SF-268 CNS = test system: SF-268 CNS
RXF 393 renal = test system: RXF 393 renal
EKVX NSCLC = test system: EKVX NSCLC
K-562 leukemia = test system: K-562 leukemia
OVCAR-8 ovarian = test system: OVCAR-8 ovarian
SK-MEL-2 melanoma = test system: SK-MEL-2 melanoma
786-0 renal = test system: 786-0 renal
HOP-92 NSCLC = test system: HOP-92 NSCLC
SR leukemia = test system: SR leukemia
HT29 colon = test system: HT29 colon
HCT-116 colon = test system: HCT-116 colon
COLO 205 colon = test system: COLO 205 colon
MDA-MB-435 melanoma = test system: MDA-MB-435 melanoma
OVCAR-4 ovarian = test system: OVCAR-4 ovarian
NCI-H460 NSCLC = test system: NCI-H460 NSCLC
NCI/ADR-RES ovarian = test system: NCI/ADR-RES ovarian
UACC-62 melanoma = test system: UACC-62 melanoma
NCI-H322M lung = test system: NCI-H322M lung
SNB-19 CNS = test system: SNB-19 CNS
SN12C renal = test system: SN12C renal
TK-10 renal = test system: TK-10 renal

`CCNC(=O)c1cc2c(-c3cc(C(C)(C)O)ccc3Oc3c(C)cc(F)cc3C)cn(C)c(=O)c2[nH]1` was tested, and the GI50 (HOP-62 NSCLC) was 1030 nM, the TGI (HOP-62 NSCLC) was 4950 nM and the GI50 (LOX IMVI melanoma) was 507 nM. The TGI (LOX IMVI melanoma) was 1840 nM, the GI50 (MDA-MB-231 breast) was 505 nM and the TGI (MDA-MB-231 breast) was 12100 nM. For the same molecule, the GI50 (CCRF-CEM leukemia) was 1030 nM, the TGI (CCRF-CEM leukemia) was 2370 nM and the GI50 (SF-295 CNS) was 3000 nM. For the same molecule, the TGI (SF-295 CNS) was 11100 nM, the GI50 (A549 NSCLC) was 1510 nM and the TGI (A549 NSCLC) was 12000 nM. The GI50 (HCT-15 colon) was 1600 nM, the TGI (HCT-15 colon) was 5230 nM and the GI50 (MCF7 breast) was 48.4 nM. For the same molecule, the TGI (MCF7 breast) was 1820 nM, the GI50 (DU-145 prostate) was 2520 nM and the TGI (DU-145 prostate) was 14700 nM. It also gave a GI50 (CAKI-1 renal) of 265 nM, a TGI (CAKI-1 renal) of 10700 nM and a GI50 (SF-539 CNS) of 1530 nM. It also gave a TGI (SF-539 CNS) of 10100 nM, a GI50 (SK-MEL-28 melanoma) of 2960 nM and a TGI (SK-MEL-28 melanoma) of 15900 nM. The GI50 (OVCAR-5 ovarian) was 1030 nM, the TGI (OVCAR-5 ovarian) was 9890 nM and the GI50 (RPMI-8226 leukemia) was 12.5 nM. It also gave a TGI (RPMI-8226 leukemia) of 693 nM, a GI50 (SK-OV-3 ovarian) of 412 nM and a TGI (SK-OV-3 ovarian) of 3740 nM. The GI50 (PC-3 prostate) was 1410 nM, the TGI (PC-3 prostate) was 12600 nM and the GI50 (HL-60(TB) leukemia) was 145 nM. It also gave a TGI (HL-60(TB) leukemia) of 618 nM, a GI50 (NCI-H226 lung) of 1260 nM and a TGI (NCI-H226 lung) of 11500 nM. For the same molecule, the GI50 (SNB-75 CNS) was 1500 nM, the TGI (SNB-75 CNS) was 10300 nM and the GI50 (NCI-H23 lung) was 725 nM. It also gave a TGI (NCI-H23 lung) of 2810 nM, a GI50 (U251 glioblastoma) of 2540 nM and a TGI (U251 glioblastoma) of 10900 nM. It also gave a GI50 (IGROV1 ovarian) of 508 nM, a TGI (IGROV1 ovarian) of 2290 nM and a GI50 (UACC-257 melanoma) of 748 nM. The TGI (UACC-257 melanoma) was 10400 nM, the GI50 (MOLT-4 leukemia) was 432 nM and the TGI (MOLT-4 leukemia) was 1900 nM. The GI50 (UO-31 renal) was 2230 nM, the TGI (UO-31 renal) was 13000 nM and the GI50 (MALME-3M melanoma) was 1150 nM. It also gave a TGI (MALME-3M melanoma) of 3360 nM, a GI50 (SF-268 CNS) of 2290 nM and a TGI (SF-268 CNS) of 11400 nM. It also gave a GI50 (RXF 393 renal) of 1220 nM, a TGI (RXF 393 renal) of 3550 nM and a GI50 (EKVX NSCLC) of 3230 nM. The TGI (EKVX NSCLC) was 13900 nM, the GI50 (K-562 leukemia) was 879 nM and the TGI (K-562 leukemia) was 10700 nM. The GI50 (OVCAR-8 ovarian) was 1120 nM, the TGI (OVCAR-8 ovarian) was 2550 nM and the GI50 (SK-MEL-2 melanoma) was 139 nM. It also gave a TGI (SK-MEL-2 melanoma) of 2850 nM, a GI50 ([…]-0 renal) of 1240 nM and a TGI (786-0 renal) of 12300 nM. The GI50 (HOP-92 NSCLC) was 1430 nM, the TGI (HOP-92 NSCLC) was 11800 nM and the GI50 (SR leukemia) was 32.8 nM. For the same molecule, the TGI (SR leukemia) was 1300 nM, the GI50 (HT29 colon) was 1240 nM and the TGI (HT29 colon) was 13400 nM. The GI50 (HCT-116 colon) was 1370 nM, the TGI (HCT-116 colon) was 10300 nM and the GI50 (COLO 205 colon) was 1100 nM. The TGI (COLO 205 colon) was 2750 nM, the GI50 (MDA-MB-435 melanoma) was 5220 nM and the TGI (MDA-MB-435 melanoma) was 19100 nM. It also gave a GI50 (OVCAR-4 ovarian) of 201 nM, a TGI (OVCAR-4 ovarian) of 870 nM and a GI50 (NCI-H460 NSCLC) of 2870 nM. It also gave a TGI (NCI-H460 NSCLC) of 12400 nM, a GI50 (NCI/ADR-RES ovarian) of 12300 nM and a TGI (NCI/ADR-RES ovarian) of 26100 nM. For the same molecule, the GI50 (UACC-62 melanoma) was 152 nM, the TGI (UACC-62 melanoma) was 4060 nM and the GI50 (NCI-H322M lung) was 1610 nM. For the same molecule, the TGI (NCI-H322M lung) was 11900 nM, the GI50 (SNB-19 CNS) was 2010 nM and the TGI (SNB-19 CNS) was 13200 nM. The GI50 (SN12C renal) was 3230 nM, the TGI (SN12C renal) was 13600 nM and the GI50 (TK-10 renal) was 366 nM. The TGI (TK-10 renal) was 2960 nM.
